Data taken from patent publication US12134610B2, “Somatostatin subtype-2 receptor (SST2R) targeted therapeutics and uses thereof” (priority 2022, dated 2024).
Starred links: 1 amine or outer side, 2 acyl side, 3 side chain; linkers in the order of their positions; H or OH if unused. Non-standard residues stand in square brackets, D forms with d. Residues, ends and D or L forms follow the SMILES beside them. *: point of attachment. X1 = Cc1cc(F)cc(-c2cnc(NCCNC(=O)CCOCCC(=O)*)c(-c3nc4ccc(Cl)cc4[nH]3)c2N2CCC(N)CC2)c1; Dolaproine = CO[C@@H]([C@@H]1CCCN1)[C@@H](C)C(=O)O; Dil = CC[C@H](C)[C@H](NC)[C@@H](CC(=O)O)OC; PABC = O=C(OCc1ccc(N[*:1])cc1)[*:2]; X2 = C[C@@H](N*)[C@@H](O)c1ccccc1; Cya = N[C@@H](CS(=O)(=O)O)C(=O)O; Cit = NC(=O)NCCC[C@H](N)C(=O)O; NMeV = CN[C@H](C(=O)O)C(C)C

Key:
Assay type in all cases: cell-based
[1] = system: NCI-H524 (ATCC) human small cell lung cancer cells; details: 2 h
Procedure, shortened: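 NCI-H524 cells (5,000/well) were exposed 24 h after plating to SMDC for 2 h, 11-point two-fold series from 1 uM. After washout they grew a further 70 h. Proliferation was read by CellTiter-Glo luminescence, % inhibition taken vs untreated control, and IC50 fitted by four-parameter nonlinear regression.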

[2] = target: T1, human somatostatin receptor subtype 2 (Homo sapiens, UniProt P30874); experiment: Functional cAMP assay for SSTR2 agonists (HTRF) in CHO-K1 cells; details: CHO-K1 cells stably expressing human SST2, 20 min; read-out: hSST2 cAMP Avg EC50
T1 construct: expressed in transfected cells
T1 sequence (P30874 whole entry): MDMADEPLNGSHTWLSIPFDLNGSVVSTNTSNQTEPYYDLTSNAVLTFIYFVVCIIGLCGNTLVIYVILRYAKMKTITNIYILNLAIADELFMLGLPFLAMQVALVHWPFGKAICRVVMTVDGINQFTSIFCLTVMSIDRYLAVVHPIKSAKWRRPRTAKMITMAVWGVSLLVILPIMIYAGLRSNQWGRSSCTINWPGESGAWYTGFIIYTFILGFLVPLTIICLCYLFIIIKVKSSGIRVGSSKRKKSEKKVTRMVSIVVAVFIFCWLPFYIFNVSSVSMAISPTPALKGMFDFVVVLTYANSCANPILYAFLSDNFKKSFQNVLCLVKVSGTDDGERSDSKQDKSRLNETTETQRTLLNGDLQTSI
Procedure, shortened: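 CHO-K1 cells stably expressing receptor, plated 4 days before assay, treated 20 min at 37° C. with compound (typically 0-10,000 nM final) plus IBMX and 1.6 μM NKH477 to raise cAMP. HTRF read, 665/620 nm ratio; cAMP from standard curve, EC50 fitted.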

SST2 = target: T2, SST2 (Homo sapiens, UniProt P30874); experiment: PathHunter CHO-K1 SST2 internalization assay; details: PathHunter CHO-K1 SST2, 90 min; read-out: Internalization EC50
T2 construct: host or cells: PathHunter CHO-K1 SST2 cells
T2 sequence (P30874 whole entry): as above
Procedure, shortened: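 PathHunter CHO-K1 SST2 cells, seeded and grown 48 h, were exposed to 11-point 1:3 dilutions of SMDC (top final 10 uM) for 90 min at 37 C, 5% CO2. Beta-Glo luminescence was read after 60 min at room temperature. Background-corrected duplicate means were fitted by four-parameter nonlinear regression to give IC50.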

Row | SMILES | EC50 [1] [nM] | EC50 [2] [nM] | EC50 (SST2) [nM]
1 | CC[C@H](C)[C@@H]([C@@H](CC(=O)N1CCC[C@H]1[C@H](OC)[C@@H](C)C(=O)N[C@H](C)[C@@H](O)c1ccccc1)OC)N(C)C(=O)[C@@H](NC(=O)[C@H](C(C)C)N(C)C(=O)OCc1ccc(NC(=O)[C@H](CCCNC(N)=O)NC(=O)[C@@H](NCCOCCOCCOCCOCCC(=O)NCCNc2ncc(-c3cc(C)cc(F)c3)c(N3CCC(N)CC3)c2-c2nc3ccc(Cl)cc3[nH]2)C(C)C)cc1)C(C)C [Compound 69] | 14.5 | 0.25 | 7.8
2 | CC[C@H](C)[C@@H]([C@@H](CC(=O)N1CCC[C@H]1[C@H](OC)[C@@H](C)C(=O)N[C@H](C)[C@@H](O)c1ccccc1)OC)N(C)C(=O)[C@@H](NC(=O)[C@H](C(C)C)N(C)C(=O)OCc1ccc(NC(=O)[C@H](CCCNC(N)=O)NC(=O)[C@@H](NC(=O)CCOCCOCCOCCOCCC(=O)NCCNc2ncc(-c3cc(C)cc(F)c3)c(N3CCC(N)CC3)c2-c2nc3ccc(Cl)cc3[nH]2)C(C)C)c(O[C@@H]2O[C@H](C(=O)O)[C@@H](O)[C@H](O)[C@H]2O)c1)C(C)C [Compound 62] | 61.2 | 0.2 | 14
3 | CC[C@H](C)[C@@H]([C@@H](CC(=O)N1CCC[C@H]1[C@H](OC)[C@@H](C)C(=O)N[C@H](C)[C@@H](O)c1ccccc1)OC)N(C)C(=O)[C@@H](NC(=O)[C@H](C(C)C)N(C)C(=O)OCc1ccc(NC(=O)[C@H](CCCNC(N)=O)NC(=O)[C@@H](NC(=O)[C@H](CS(=O)(=O)O)NC(=O)[C@@H](CCC(=O)O)NC(=O)CCOCCC(=O)NCCNc2ncc(-c3cc(C)cc(F)c3)c(N3CCC(N)CC3)c2-c2nc3ccc(Cl)cc3[nH]2)C(C)C)cc1)C(C)C [Compound 106] (X1-[dE][Cya]V[Cit][PABC][NMeV]V[Dil][Dolaproine]-X2) | 460 | 0.25 | 16
4 | CC[C@H](C)[C@@H]([C@@H](CC(=O)N1CCC[C@H]1[C@H](OC)[C@@H](C)C(=O)N[C@H](C)[C@@H](O)c1ccccc1)OC)N(C)C(=O)[C@@H](NC(=O)[C@H](C(C)C)N(C)C(=O)OCc1ccc(NC(=O)[C@H](CCCNC(N)=O)NC(=O)[C@@H](NC(=O)[C@@H](CCC(=O)O)NC(=O)CCOCCC(=O)NCCNc2ncc(-c3cc(C)cc(F)c3)c(N3CCC(N)CC3)c2-c2nc3ccc(Cl)cc3[nH]2)C(C)C)cc1C(=O)NCCN)C(C)C [Compound 101] | 34 | 0.22 | 6.7
5 | CC[C@H](C)[C@@H]([C@@H](CC(=O)N1CCC[C@H]1[C@H](OC)[C@@H](C)C(=O)N[C@H](C)[C@@H](O)c1ccccc1)OC)N(C)C(=O)[C@@H](NC(=O)[C@H](C(C)C)N(C)C(=O)OCc1ccc(NC(=O)[C@H](CCCNC(N)=O)NC(=O)[C@@H](NC(=O)CCOCCNC(=O)CN2CCN(CC(=O)O)CCN(CC(=O)NCCOCCOCCOCCOCCC(=O)NCCNc3ncc(-c4cc(C)cc(F)c4)c(N4CCC(N)CC4)c3-c3nc4ccc(Cl)cc4[nH]3)CC2)C(C)C)cc1)C(C)C [Compound 43] | 82.6 | 0.29 | 18.1
6 | CC[C@H](C)[C@@H]([C@@H](CC(=O)N1CCC[C@H]1[C@H](OC)[C@@H](C)C(=O)N[C@H](C)[C@@H](O)c1ccccc1)OC)N(C)C(=O)[C@@H](NC(=O)[C@H](C(C)C)N(C)C(=O)OCc1ccc(NC(=O)[C@H](CCCNC(N)=O)NC(=O)[C@@H](NC(=O)[C@H](CCC(=O)O)NC(=O)CCOCCOCCOCCOCCC(=O)NCCNc2ncc(-c3cc(C)cc(F)c3)c(N3CCC(N)CC3)c2-c2nc3ccc(Cl)cc3[nH]2)C(C)C)cc1C(=O)NC)C(C)C [Compound 53] | 100 | 0.16 | 13
7 | CC[C@H](C)[C@@H]([C@@H](CC(=O)N1CCC[C@H]1[C@H](OC)[C@@H](C)C(=O)N[C@H](C)[C@@H](O)c1ccccc1)OC)N(C)C(=O)[C@@H](NC(=O)[C@H](C(C)C)N(C)C(=O)OCc1ccc(NC(=O)[C@H](CCCNC(N)=O)NC(=O)[C@@H](NC(=O)[C@H](CCC(N)=O)NC(=O)CCOCCOCCOCCOCCC(=O)NCCNc2ncc(-c3cc(C)cc(F)c3)c(N3CCC(N)CC3)c2-c2nc3ccc(Cl)cc3[nH]2)C(C)C)cc1C(=O)NC)C(C)C [Compound 60] | 35 | 0.1 | 13
